The compounds below were run on phosphorylated ERK (Thr202/Tyr204) in NCI-H358 cells expressing mutant RAS(G12C) (assay: Inhibition of RAS-mediated signal transduction: phosphorylated ERK ELISA in NCI-H358 cells). Conditions: Homo sapiens, NCI-H358, 2 h, NCI-H358 cells, 2 hours of treatment, pERK normalized by Janus Green B; read-out: p-ERK IC50 (NCI H358).
Format: cell-based
Method: The cells were treated with or without the compound of the present disclosure (dimethyl sulfoxide, DMSO), and the final concentration of DMSO was guaranteed to be 0.5%. After 2 hours of treatment, the medium was removed and 4% paraformaldehyde (Beyotime catalog number E672002-0100) was added and left to stand for 20 minutes. Cells were washed with PBS after fixation and incubated with precooled methanol for 10 min to permeabilize the cell membrane.
The level of phosphorylated ERK was detected using an enzyme linked immunosorbent assay (ELISA) method. […] The plates were washed 5 times with PBS containing 0.05% Tween 20. […] The reaction was stopped by adding 1 mol/L H2SO4, and the OD value was read at 450 nm by EnVision (PerkinElmer).
The total number of cells per well was detected by Janus Green B staining method. After detecting the level of phosphorylated ERK, the 96-well plate was washed with PBS until colorless, and 0.1% Janus Green B (Abcam catalogue number ab111622) was added to incubate for 10 minutes. After the 96-well plate was washed with double distilled water, 0.1 mol/L HCl was added, then the mixture was shaked and incubated for 10 minutes. The OD value was read at 595 nm by EnVision (PerkinElmer).
The signal of pERK (Thr202/Tyr204) was normalized by the signal value of Janus Green B, and the inhibition percentage after drug treatment relative to DMSO reference was calculated. The percentage values were fitted by a four-parameter dose-response curve and generated IC50 values.

Row | SMILES | IC50 [µM]
1 | C=CC(=O)N1C[C@@H]2C(=O)N(C)c3c(c4cc(F)c(-c5c(C)ccc6[nH]nc(C7CC7)c56)c(F)c4n(-c4c(C)ccnc4C(C)C)c3=O)N2C[C@H]1C [Compound 47A] | 1.56
2 | C=CC(=O)N1C[C@@H]2C(=O)N(C3CN(C)C3)c3c(c4cc(F)c(-c5c(F)cccc5OC)c(F)c4n(-c4c(C)ccnc4C(C)C)c3=O)N2C[C@H]1C [Compound 43] | 1.92
3 | C=CC(=O)N1C[C@@H]2C(=O)N(C)c3c(c4cc(F)c(-c5ccccc5F)c(F)c4n(-c4c(C)ccnc4C(C)C)c3=O)N2C[C@H]1C [Compound 31A] | 2.16
4 | C=CC(=O)N1C[C@@H]2C(=O)N(C)c3c(c4cc(F)c(-c5c(N)cccc5F)c(F)c4n(-c4c(C)ccnc4C(C)C)c3=O)N2C[C@H]1C [Compound 33A-1] | 0.717
5 | C=CC(=O)N1C[C@@H]2CNc3c(c4cc(F)c(-c5c(O)cccc5F)nc4n(-c4ccccc4C(C)C)c3=O)N2C[C@H]1C [Compound 11A] | 1.12
6 | C=CC(=O)N1C[C@@H]2CN(CCCN(C)C)c3c(c4cc(F)c(-c5c(O)cccc5F)c(F)c4n(-c4c(C)ccnc4C(C)C)c3=O)N2C[C@H]1C [Compound 34A] | 0.503
7 | C=CC(=O)N1CCN2c3c(c(=O)n(-c4ccccc4C(C)C)c4nc(-c5c(O)cccc5F)c(F)cc34)OC[C@H]2C1 [Compound 12A] | 0.604
8 | C=CC(=O)N1C[C@@H]2COc3c(c4cc(F)c(-c5c(C)ccc6[nH]cnc56)nc4n(-c4ccccc4C(C)C)c3=O)N2C[C@H]1C [Compound 17] | 0.275
9 | C=CC(=O)N1C[C@@H]2COc3c(c4cc(Cl)c(-c5c(O)cccc5F)nc4n(C)c3=O)N2C[C@H]1C [Compound 9] | 1.96
10 | C=CC(=O)N1C[C@@H]2C(=O)N(CCN(C)C)c3c(c4cc(F)c(-c5c(O)cccc5F)c(F)c4n(-c4c(C)ccnc4C(C)C)c3=O)N2C[C@H]1C [Compound 24A] | 3.82
11 | C=CC(=O)N1C[C@@H]2C(=O)N(CCN(C)C)c3c(c4cc(F)c(-c5c(F)cccc5OC)c(F)c4n(-c4c(C)ccnc4C(C)C)c3=O)N2C[C@H]1C [Compound 48A-1] | 0.294
12 | C=CC(=O)N1C[C@]2(CO)C(=O)N(C)c3c(c4cc(F)c(-c5c(O)cccc5F)nc4n(-c4c(C)ccnc4C(C)C)c3=O)N2C[C@H]1C [Compound 51A] | 1.28
13 | C=CC(=O)N1C[C@@H]2C(=O)N(C)c3c(c4cc(F)c(-c5ccccc5O)c(F)c4n(-c4c(C)ccnc4C(C)C)c3=O)N2C[C@H]1C [Compound 46A] | 2.05
14 | C=CC(=O)N1C[C@@H]2COc3c(c4cc(Cl)c(-c5c(O)cccc5F)c(F)c4n(C[C@@H]4CCCN4C)c3=O)N2C[C@H]1C [Compound 45A] | 1.54
15 | C=CC(=O)N1C[C@@H]2COc3c(c4cc(F)c(-c5c(F)cccc5OC)nc4n(-c4ccccc4C(C)C)c3=O)N2C[C@H]1C [Compound 1A] | 0.173

Same assay, conditions: NCI-H358 cells, 2 hours of treatment, pERK normalized by Janus Green B; read-out: p-ERK IC50 (NCI H358)

Row | SMILES | IC50 [µM]
16 | C=CC(=O)N1CC2COc3c(c4cc(F)c(-c5c(O)cccc5F)c(F)c4n(-c4c(C(C)C)ncnc4C(C)C)c3=O)N2CC1C (single isomer, unassigned) [Compound 19B] | 0.936
17 | C=CC(=O)N1C[C@@H]2C(=O)N(C)c3c(c4cc(Cl)c(-c5c(O)cccc5F)c(F)c4n(-c4c(C)ccnc4C(C)C)c3=O)N2C[C@H]1C [Compound 23B-1] | 0.15
18 | C=CC(=O)N1C[C@@H]2COc3c(c4cc(F)c(-c5c(O)cccc5F)c(F)c4n(-c4c(C)ccnc4C(C)C)c3=O)N2C[C@H]1C [Compound 3A] | 0.474
19 | C=CC(=O)N1C[C@@H]2COc3c(c4cc(F)c(-c5c(O)cccc5F)c(F)c4n(-c4c(C)ccnc4C(C)C)c3=O)N2C[C@H]1C [Compound 3A-2] | 5.24
20 | C=CC(=O)N1C[C@@H]2C(=O)N(CCN(C)C)c3c(c4cc(Cl)c(-c5c(O)cccc5F)c(F)c4n(-c4c(CC)ccnc4C(C)C)c3=O)N2C[C@H]1C [Compound 54A-1] | 0.641
21 | C=CC(=O)N1C[C@@H]2C(=O)N(C)c3c(c4cc(F)c(-c5c(O)cccc5F)c(F)c4n(-c4c(C)ccnc4C(C)C)c3=O)N2C[C@H]1C [Compound 21B] | 0.306
22 | C=CC(=O)N1C[C@@H]2CN(CC(=O)OC)c3c(c4cc(F)c(-c5c(O)cccc5F)c(F)c4n(-c4c(C)ccnc4C(C)C)c3=O)N2C[C@H]1C [Compound 38A-1] | 0.242
23 | C=CC(=O)N1C[C@@H]2CN(C)c3c(c4cc(F)c(-c5c(O)cccc5F)c(F)c4n(-c4c(C)ccnc4C(C)C)c3=O)N2C[C@H]1C (atropisomer, axis not shown) [Compound 16B-1] | 0.648
24 | C=CC(=O)N1C[C@@H]2COc3c(c4cc(F)c(-c5c(C)ccc6[nH]ncc56)nc4n(-c4ccccc4C(C)C)c3=O)N2C[C@H]1C (single isomer, unassigned) [Compound 13B] | 5.67
25 | C=CC(=O)N1C[C@@H]2C(=O)N(C)c3c(c4cc(F)c(-c5c(O)cccc5F)c(F)c4n(-c4c(C)ccnc4C(C)C)c3=O)N2C[C@H]1C [Compound 21A] | 0.013
26 | C=CC(=O)N1C[C@@H]2C(=O)Nc3c(c4cc(F)c(-c5c(O)cccc5F)c(F)c4n(-c4c(C)ccnc4C(C)C)c3=O)N2C[C@H]1C [Compound 22B-1] | 0.213
27 | C=CC(=O)N1C[C@@H]2COc3c(c4cc(F)c(-c5c(O)cccc5F)c(F)c4n(-c4c(C)ccnc4C(C)C)c3=O)N2C[C@H]1C (atropisomer, axis not shown) [Compound 3A-1] | 3.01
28 | C=CC(=O)N1C[C@@H]2CN(CC(=O)O)c3c(c4cc(F)c(-c5c(O)cccc5F)c(F)c4n(-c4c(C)ccnc4C(C)C)c3=O)N2C[C@H]1C [Compound 39A] | 0.798
29 | C=CC(=O)N1C[C@@H]2CN(CC(=O)O)c3c(c4cc(F)c(-c5c(O)cccc5F)c(F)c4n(-c4c(C)ccnc4C(C)C)c3=O)N2C[C@H]1C [Compound 39A-1] | 1.64
30 | C=CC(=O)N1C[C@@H]2CN(CC(=O)OC)c3c(c4cc(F)c(-c5c(O)cccc5F)c(F)c4n(-c4c(C)ccnc4C(C)C)c3=O)N2C[C@H]1C [Compound 38B-1] | 1.13
31 | C=CC(=O)N1C[C@@H]2C(=O)N(CCN(C)C)c3c(c4cc(Cl)c(-c5c(O)cccc5F)c(F)c4n(-c4c(CC)ccnc4C(C)C)c3=O)N2C[C@H]1C (atropisomer, axis not shown) [Compound 54A-2] | 0.844
32 | C=CC(=O)N1C[C@@H]2C(=O)N(C)c3c(c4cc(F)c(-c5c(O)cccc5F)c(F)c4n(-c4c(C)ccnc4C(C)C)c3=O)N2C[C@H]1C [Compound 21B-1] | 2.24
33 | C=CC(=O)N1C[C@@H]2C(=O)N(C)c3c(c4cc(Cl)c(-c5c(O)cccc5F)c(F)c4n(-c4c(C)ccnc4C(C)C)c3=O)N2C[C@H]1C [Compound 23B-2] | 0.749
34 | C=CC(=O)N1C[C@@H]2CN(C)c3c(c4cc(F)c(-c5c(O)cccc5F)c(F)c4n(-c4c(C)ccnc4C(C)C)c3=O)N2C[C@H]1C (single isomer, unassigned) [Compound 16B] | 1.25
35 | C=CC(=O)N1C[C@@H]2COc3c(c4cc(F)c(-c5c(F)cccc5OC)nc4n(-c4c(C)ccnc4C(C)C)c3=O)N2C[C@H]1C (single isomer, unassigned) [Compound 6B] | 0.691
36 | C=CC(=O)N1C[C@@H]2C(=O)Nc3c(c4cc(F)c(-c5c(O)cccc5F)c(F)c4n(-c4c(C)ccnc4C(C)C)c3=O)N2C[C@H]1C [Compound 22B] | 0.548

— patent publication US12122787B2, “Fused pyridone compound, and preparation method therefor and use thereof” (SHANGHAI JEMINCARE PHARMACEUTICALS CO., LTD, priority 2019, dated 2024)
